{"source": "patent US20220274954A1", "about": "“SUBSTITUTED N-PHENYL-N-AMINOUARCILS AND SALTS THEREOF AND USE THEREOF AS HERBICIDAL AGENTS” (Bayer Aktiengesellschaft, priority 2019, published 2022)", "type_in_all_cases": "in vivo", "key": {"Abutilon theophrasti": {"system": "Abutilon theophrasti", "assay": "Post-emergence herbicidal action", "method": "(§1) Seeds of monocotyledonous and dicotyledonous weeds and crop plants were placed in sandy loam in plastic or wood-fiber pots, covered with soil and cultivated in a greenhouse under controlled growth conditions. 2 to 3 weeks after sowing, the test plants were treated at the one-leaf stage. The compounds of the invention, formulated in the form of wettable powders (WP) or as emulsion concentrates (EC), were then sprayed onto the green parts of the plants as aqueous suspension or emulsion with addition of 0.5% additive at a water application rate of […] (converted). After the test plants had been kept in the greenhouse under optimum growth conditions for about 3 weeks, the activity of the preparations was rated visually in comparison to untreated controls. For example, 100% activity=the plants have died, 0% activity=like control plants. Tables A1 to A14 below show the effects of selected compounds of the general formula (I) according to Tables I.1 to I.34 on various harmful plants and at an application rate corresponding to 20 g/ha and less, which were obtained by the experimental procedure mentioned above."}, "Alopecurus myosuroides": {"system": "Alopecurus myosuroides", "assay": "Post-emergence herbicidal action", "method": "as §1"}, "Amaranthus retroflexus": {"system": "Amaranthus retroflexus", "assay": "Post-emergence herbicidal action", "method": "as §1"}, "Avena fatua": {"system": "Avena fatua", "assay": "Post-emergence herbicidal action", "conditions": "application rate 20 g/ha", "method": "as §1"}, "Matricaria inodora": {"system": "Matricaria inodora", "assay": "Post-emergence herbicidal action", "method": "as §1"}, "Pharbitis purpurea": {"system": "Pharbitis purpurea", "assay": "Post-emergence herbicidal action", "method": "as §1"}, "Veronica persica": {"system": "Veronica persica", "assay": "Post-emergence herbicidal action", "method": "as §1"}, "Viola tricolor": {"system": "Viola tricolor", "assay": "Post-emergence herbicidal action", "method": "as §1"}, "Oryza sativa": {"system": "Oryza sativa", "assay": "Post-emergence crop plant compatibility", "method": "as §1, with “plants.” for “plants. Tables A1 to A14 below show the effects of selected compounds of the general formula (I) according to Tables I.1 to I.34 on various harmful plants and at an application rate corresponding to 20 g/ha and less, which were obtained by the experimental procedure mentioned above.”\n(§2) Here, the observed effects on selected crop plants are stated in comparison to the untreated controls (values in %)."}, "Triticum aestivum": {"system": "Triticum aestivum", "assay": "Post-emergence crop plant compatibility", "conditions": "application rate 1.25 g/ha", "method": "as §1, with “plants.” for “plants. Tables A1 to A14 below show the effects of selected compounds of the general formula (I) according to Tables I.1 to I.34 on various harmful plants and at an application rate corresponding to 20 g/ha and less, which were obtained by the experimental procedure mentioned above.”\nas §2"}, "Echinochloa crus-galli": {"system": "Echinochloa crus-galli", "assay": "Post-emergence herbicidal action", "method": "as §1"}, "Digitaria sanguinalis": {"system": "Digitaria sanguinalis", "assay": "Post-emergence herbicidal action", "conditions": "504 h, read-out: Digitaria sanguinalis (efficacy in %)", "method": "as §1"}, "Polygonum convolvulus": {"system": "Polygonum convolvulus", "assay": "Post-emergence herbicidal action", "conditions": "Fallopia convolvulus, 504 h, read-out: Polygonum convolvulus (efficacy in %)", "method": "as §1"}, "Setaria viridis": {"system": "Setaria viridis", "assay": "Post-emergence herbicidal action", "conditions": "504 h, read-out: Setaria viridis (efficacy in %)", "method": "as §1"}}}
{"smiles": "Nn1c(C(F)(F)F)cc(=O)n(-c2cc(Sc3cccnc3OCC(=O)OCc3ccccn3)c(Cl)cc2F)c1=O", "note": "[I.1-286]", "values": [{"measurement": "Abutilon theophrasti (efficacy in %)", "setting": "Abutilon theophrasti; application rate 5 g/ha", "value": 100, "unit": "%"}, {"measurement": "Abutilon theophrasti (efficacy in %)", "setting": "Abutilon theophrasti; application rate 20 g/ha", "value": 100, "unit": "%"}, {"measurement": "Alopecurus myosuroides (efficacy in %)", "setting": "Alopecurus myosuroides; application rate 5 g/ha", "value": 100, "unit": "%"}, {"measurement": "Alopecurus myosuroides (efficacy in %)", "setting": "Alopecurus myosuroides; application rate 20 g/ha", "value": 100, "unit": "%"}, {"measurement": "Amaranthus retroflexus (efficacy in %)", "setting": "Amaranthus retroflexus; application rate 5 g/ha", "value": 100, "unit": "%"}, {"measurement": "Amaranthus retroflexus (efficacy in %)", "setting": "Amaranthus retroflexus; application rate 20 g/ha", "value": 100, "unit": "%"}, {"measurement": "Avena fatua (efficacy in %)", "setting": "Avena fatua", "value": 80, "unit": "%"}, {"measurement": "Matricaria inodora (efficacy in %)", "setting": "Matricaria inodora; application rate 5 g/ha", "value": 100, "unit": "%"}, {"measurement": "Matricaria inodora (efficacy in %)", "setting": "Matricaria inodora; application rate 20 g/ha", "value": 100, "unit": "%"}, {"measurement": "Pharbitis purpurea (efficacy in %)", "setting": "Pharbitis purpurea; application rate 5 g/ha", "value": 100, "unit": "%"}, {"measurement": "Veronica persica (efficacy in %)", "setting": "Veronica persica; application rate 5 g/ha", "value": 100, "unit": "%"}, {"measurement": "Veronica persica (efficacy in %)", "setting": "Veronica persica; application rate 20 g/ha", "value": 100, "unit": "%"}, {"measurement": "Viola tricolor (efficacy in %)", "setting": "Viola tricolor; application rate 5 g/ha", "value": 100, "unit": "%"}, {"measurement": "Viola tricolor (efficacy in %)", "setting": "Viola tricolor; application rate 20 g/ha", "value": 100, "unit": "%"}, {"measurement": "Oryza sativa (efficacy in %)", "setting": "Oryza sativa; application rate 1.25 g/ha", "value": 0, "unit": "%"}, {"measurement": "Triticum aestivum (efficacy in %)", "setting": "Triticum aestivum", "value": 20, "unit": "%"}]}
{"smiles": "N#CCOC(=O)COc1ncccc1Sc1cc(-n2c(=O)cc(C(F)(F)F)n(N)c2=O)c(F)cc1Cl", "note": "[I.1-176]", "values": [{"measurement": "Abutilon theophrasti (efficacy in %)", "setting": "Abutilon theophrasti; application rate 5 g/ha", "value": 100, "unit": "%"}, {"measurement": "Abutilon theophrasti (efficacy in %)", "setting": "Abutilon theophrasti; application rate 20 g/ha", "value": 100, "unit": "%"}, {"measurement": "Alopecurus myosuroides (efficacy in %)", "setting": "Alopecurus myosuroides; application rate 5 g/ha", "value": 90, "unit": "%"}, {"measurement": "Alopecurus myosuroides (efficacy in %)", "setting": "Alopecurus myosuroides; application rate 20 g/ha", "value": 100, "unit": "%"}, {"measurement": "Amaranthus retroflexus (efficacy in %)", "setting": "Amaranthus retroflexus; application rate 5 g/ha", "value": 100, "unit": "%"}, {"measurement": "Amaranthus retroflexus (efficacy in %)", "setting": "Amaranthus retroflexus; application rate 20 g/ha", "value": 100, "unit": "%"}, {"measurement": "Avena fatua (efficacy in %)", "setting": "Avena fatua", "value": 80, "unit": "%"}, {"measurement": "Echinochloa crus-galli (efficacy in %)", "setting": "Echinochloa crus-galli; application rate 5 g/ha", "value": 90, "unit": "%"}, {"measurement": "Echinochloa crus-galli (efficacy in %)", "setting": "Echinochloa crus-galli; application rate 20 g/ha", "value": 100, "unit": "%"}, {"measurement": "Matricaria inodora (efficacy in %)", "setting": "Matricaria inodora; application rate 5 g/ha", "value": 100, "unit": "%"}, {"measurement": "Matricaria inodora (efficacy in %)", "setting": "Matricaria inodora; application rate 20 g/ha", "value": 100, "unit": "%"}, {"measurement": "Pharbitis purpurea (efficacy in %)", "setting": "Pharbitis purpurea; application rate 5 g/ha", "value": 100, "unit": "%"}, {"measurement": "Pharbitis purpurea (efficacy in %)", "setting": "Pharbitis purpurea; application rate 20 g/ha", "value": 100, "unit": "%"}, {"measurement": "Veronica persica (efficacy in %)", "setting": "Veronica persica; application rate 5 g/ha", "value": 100, "unit": "%"}, {"measurement": "Veronica persica (efficacy in %)", "setting": "Veronica persica; application rate 20 g/ha", "value": 100, "unit": "%"}, {"measurement": "Viola tricolor (efficacy in %)", "setting": "Viola tricolor; application rate 5 g/ha", "value": 100, "unit": "%"}, {"measurement": "Viola tricolor (efficacy in %)", "setting": "Viola tricolor; application rate 20 g/ha", "value": 100, "unit": "%"}, {"measurement": "Triticum aestivum (efficacy in %)", "setting": "Triticum aestivum", "value": 20, "unit": "%"}]}
{"smiles": "CCCCOC(=O)COc1ncccc1Sc1cc(-n2c(=O)cc(C(F)(F)F)n(N)c2=O)c(F)cc1Cl", "note": "[I.1-447, n-Butyl {[3-({5-[3-amino-2,6-dioxo-4-(trifluoromethyl)-3,6-dihydropyrimidin-1(2H)-yl]-2-chloro-4-fluorophenyl}sulfanyl)pyridin-2-yl]oxy}acetate]", "values": [{"measurement": "pest or weed control at 5 g/ha", "setting": "Abutilon theophrasti; Abutilon theophrasti, 504 h, application rate 5 g/ha, read-out: Abutilon theophrasti (efficacy in %)", "value": 100, "unit": "%"}, {"measurement": "pest or weed control at 20 g/ha", "setting": "Abutilon theophrasti; Abutilon theophrasti, 504 h, application rate 20 g/ha, read-out: Abutilon theophrasti (efficacy in %)", "value": 100, "unit": "%"}, {"measurement": "Alopecurus myosuroides (efficacy in %)", "setting": "Alopecurus myosuroides; application rate 5 g/ha", "value": 80, "unit": "%"}, {"measurement": "Alopecurus myosuroides (efficacy in %)", "setting": "Alopecurus myosuroides; application rate 20 g/ha", "value": 90, "unit": "%"}, {"measurement": "pest or weed control at 5 g/ha", "setting": "Amaranthus retroflexus; Amaranthus retroflexus, 504 h, application rate 5 g/ha, read-out: Amaranthus retroflexus (efficacy in %)", "value": 100, "unit": "%"}, {"measurement": "pest or weed control at 20 g/ha", "setting": "Amaranthus retroflexus; Amaranthus retroflexus, 504 h, application rate 20 g/ha, read-out: Amaranthus retroflexus (efficacy in %)", "value": 100, "unit": "%"}, {"measurement": "pest or weed control at 5 g/ha", "setting": "Digitaria sanguinalis; application rate 5 g/ha", "value": 100, "unit": "%"}, {"measurement": "pest or weed control at 20 g/ha", "setting": "Digitaria sanguinalis; application rate 20 g/ha", "value": 100, "unit": "%"}, {"measurement": "pest or weed control at 5 g/ha", "setting": "Echinochloa crus-galli; Echinochloa crus-galli, 504 h, application rate 5 g/ha, read-out: Echinochloa crus-galli (efficacy in %)", "value": 100, "unit": "%"}, {"measurement": "pest or weed control at 20 g/ha", "setting": "Echinochloa crus-galli; Echinochloa crus-galli, 504 h, application rate 20 g/ha, read-out: Echinochloa crus-galli (efficacy in %)", "value": 100, "unit": "%"}, {"measurement": "pest or weed control at 5 g/ha", "setting": "Matricaria inodora; Tripleurospermum inodorum, 504 h, application rate 5 g/ha, read-out: Matricaria inodora (efficacy in %)", "value": 100, "unit": "%"}, {"measurement": "pest or weed control at 20 g/ha", "setting": "Matricaria inodora; Tripleurospermum inodorum, 504 h, application rate 20 g/ha, read-out: Matricaria inodora (efficacy in %)", "value": 100, "unit": "%"}, {"measurement": "pest or weed control at 5 g/ha", "setting": "Pharbitis purpurea; Ipomoea purpurea, 504 h, application rate 5 g/ha, read-out: Pharbitis purpurea (efficacy in %)", "value": 100, "unit": "%"}, {"measurement": "pest or weed control at 20 g/ha", "setting": "Pharbitis purpurea; Ipomoea purpurea, 504 h, application rate 20 g/ha, read-out: Pharbitis purpurea (efficacy in %)", "value": 100, "unit": "%"}, {"measurement": "pest or weed control at 5 g/ha", "setting": "Polygonum convolvulus; application rate 5 g/ha", "value": 100, "unit": "%"}, {"measurement": "pest or weed control at 20 g/ha", "setting": "Polygonum convolvulus; application rate 20 g/ha", "value": 100, "unit": "%"}, {"measurement": "pest or weed control at 5 g/ha", "setting": "Setaria viridis; application rate 5 g/ha", "value": 100, "unit": "%"}, {"measurement": "pest or weed control at 20 g/ha", "setting": "Setaria viridis; application rate 20 g/ha", "value": 100, "unit": "%"}, {"measurement": "pest or weed control at 5 g/ha", "setting": "Veronica persica; Veronica persica, 504 h, application rate 5 g/ha, read-out: Veronica persica (efficacy in %)", "value": 100, "unit": "%"}, {"measurement": "pest or weed control at 20 g/ha", "setting": "Veronica persica; Veronica persica, 504 h, application rate 20 g/ha, read-out: Veronica persica (efficacy in %)", "value": 100, "unit": "%"}, {"measurement": "pest or weed control at 5 g/ha", "setting": "Viola tricolor; Viola tricolor, 504 h, application rate 5 g/ha, read-out: Viola tricolor (efficacy in %)", "value": 100, "unit": "%"}, {"measurement": "pest or weed control at 20 g/ha", "setting": "Viola tricolor; Viola tricolor, 504 h, application rate 20 g/ha, read-out: Viola tricolor (efficacy in %)", "value": 100, "unit": "%"}, {"measurement": "Oryza sativa (efficacy in %)", "setting": "Oryza sativa; application rate 1.25 g/ha", "value": 0, "unit": "%"}, {"measurement": "Oryza sativa (efficacy in %)", "setting": "Oryza sativa; application rate 5 g/ha", "value": 10, "unit": "%"}, {"measurement": "Triticum aestivum (efficacy in %)", "setting": "Triticum aestivum", "value": 10, "unit": "%"}]}
